In patent US20230406883A1, “COMPOUNDS AND THEIR USE IN TREATMENT OF TACHYKININ RECEPTOR MEDIATED DISORDERS” (Embark Biotech ApS, priority 2020, published 2023):
Numbered stars: 1 amine (or outer) side, 2 acyl side, 3 side chain; on linkers, the order of the positions; unused ones are H or OH. Square brackets hold non-standard residues; d marks the D form. Peptide text beside a SMILES is read from it. * marks the point of attachment. C18 diacid = O=C(O)CCCCCCCCCCCCCCCCC(=O)*; C16 diacid = O=C(O)CCCCCCCCCCCCCCC(=O)*; γGlu = O=C(O)[C@H](CCC(=O)[*:2])N[*:1]; Conj‑Neu‑C18DA = not defined here; NMeL = CN[C@@H](CC(C)C)C(=O)O; Nle = CCCC[C@H](N)C(=O)O; AEEA = NCCOCCOCC(=O)O

Experiments:
Test in all cases: IP3 assay (inositol trisphosphate, 3H-myoinositol) in transiently transfected COS-7 cells
Type in all cases: cell-based
hNK1R = target: T1, hNK1R (Homo sapiens, UniProt P25103); conditions: for hNK1R, IP3 Efficacy / EC50: COS-7 cells; for hNK1R, IP3 Efficacy: figure legends: percent of 10^-6 M NKA; for EC50: 0.2% ovalbumin buffer
T1 construct: host or cells: COS-7
Procedure: (§1) Agonist-induced G-protein coupled receptor (GPCR) activation was measured by an Inositol-1,4,5-Trisphosphate [^3H] Radioreceptor Assay (IPs Assay). Assays were carried out using COS-7 cells transiently transfected by calcium phosphate transfection with a vector pcDNA3.1(+) encoding one of the indicated receptors (Genscript). Briefly, DNA mixed with CaCl2 (2 M) and TE-buffer (10 mM Tris-HCl, 1 mM EDTA, pH 7.5) was dropwise added to 2×HBS (50 mM HEPES, 280 mM NaCl, 1.5 mM NaH2PO4, pH 7.2) and incubated for 45 min at room temperature (22±2° C.). The mixture and a final concentration of 100 μM Chloroquine were added to the cells and left to incubate for 5 hours at 37° C. under standard cell culture conditions (10% CO2) before changing medium to fresh medium containing 5 μl/mL Myo-[2-^3H(N)]-inositol (labelling medium).
(§2) The IP3 assay takes advantage of the tachykinin receptors' ability to induce production of the inositol trisphosphate (IP3) second messenger upon agonist (ligand) binding on receptor expressing cells following an initial ^3H-inositol labelling period. In effect this means that production of the second messenger IP3 as a measure of receptor activity can be assessed by counting ^3H-activity.
(§3) Assay solutions used: Wash buffer (HBSS), Assay buffer (HBSS+10 mM LiCl and 0,2% w/v ovalbumin), Lysis buffer (10 mM formic acid), and SPA YSI beads (12.5 mg/ml in H2O). The assay was performed the day after transfection. Briefly, labelling medium was aspirated, and plates were washed ×1 in wash buffer before adding 100 μl assay buffer, pre-incubated for 30 min followed by 120 min incubation with agonist, both at 37° C. After incubation, plates were immediately placed on ice and the incubation medium was aspirated and 40 μl of 10 mM formic acid per well was added. Plates were incubated for at least 30 min on ice. 60 μl (1 mg/well) SPA YSI beads/well was pipetted into a solid white 96 wells plate and 35 μl of the lysis solution was transferred to the plate before covering plates with seal cover and shaking for 10 min. (max speed). Centrifuge plates and leave for 8 hours at room temperature before counting the plates in a MicroBeta plate counter (Perkin Elmer).

hNK2R = target: T2, hNK2R (Homo sapiens, UniProt P21452); conditions: for EC50 / hNK2R, IP3 Efficacy: COS-7 cells; for EC50: 0.2% ovalbumin buffer; for hNK2R, IP3 Efficacy: figure legends: percent of 10^-6 M NKA
T2 construct: host or cells: COS-7
T2 sequence (P21452 1-398): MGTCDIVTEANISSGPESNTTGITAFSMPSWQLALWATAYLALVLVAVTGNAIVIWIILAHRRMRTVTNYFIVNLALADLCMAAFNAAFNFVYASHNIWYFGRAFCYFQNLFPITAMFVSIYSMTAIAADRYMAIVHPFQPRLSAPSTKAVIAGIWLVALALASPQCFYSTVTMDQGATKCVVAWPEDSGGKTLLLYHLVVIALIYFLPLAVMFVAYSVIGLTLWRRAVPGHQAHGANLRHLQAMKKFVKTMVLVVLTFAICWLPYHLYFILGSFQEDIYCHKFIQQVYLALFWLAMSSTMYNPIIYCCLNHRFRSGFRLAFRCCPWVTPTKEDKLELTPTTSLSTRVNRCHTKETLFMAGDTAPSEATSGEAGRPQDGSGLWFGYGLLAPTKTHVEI
Procedure: as §1, §2, §3

hNK3R = target: T3, hNK3R (Homo sapiens, UniProt P29371); conditions: for hNK3, IP3 Efficacy: figure legends: percent of 10^-6 M NKA
T3 construct: host or cells: COS-7
T3 sequence (P29371 1-465): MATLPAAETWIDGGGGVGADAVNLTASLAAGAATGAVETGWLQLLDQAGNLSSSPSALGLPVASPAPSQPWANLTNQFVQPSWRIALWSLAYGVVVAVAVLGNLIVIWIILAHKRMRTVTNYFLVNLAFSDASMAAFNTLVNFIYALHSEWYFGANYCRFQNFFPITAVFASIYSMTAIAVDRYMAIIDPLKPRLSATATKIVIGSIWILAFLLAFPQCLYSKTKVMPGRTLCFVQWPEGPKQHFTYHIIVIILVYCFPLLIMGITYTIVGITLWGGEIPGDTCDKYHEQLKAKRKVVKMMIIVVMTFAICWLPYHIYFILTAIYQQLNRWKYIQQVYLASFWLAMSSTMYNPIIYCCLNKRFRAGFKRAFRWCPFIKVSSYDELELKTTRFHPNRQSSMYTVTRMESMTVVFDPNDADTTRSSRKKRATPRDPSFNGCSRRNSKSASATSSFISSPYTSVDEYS
Procedure: as §1, §2, §3

T1 sequence (P25103 whole entry): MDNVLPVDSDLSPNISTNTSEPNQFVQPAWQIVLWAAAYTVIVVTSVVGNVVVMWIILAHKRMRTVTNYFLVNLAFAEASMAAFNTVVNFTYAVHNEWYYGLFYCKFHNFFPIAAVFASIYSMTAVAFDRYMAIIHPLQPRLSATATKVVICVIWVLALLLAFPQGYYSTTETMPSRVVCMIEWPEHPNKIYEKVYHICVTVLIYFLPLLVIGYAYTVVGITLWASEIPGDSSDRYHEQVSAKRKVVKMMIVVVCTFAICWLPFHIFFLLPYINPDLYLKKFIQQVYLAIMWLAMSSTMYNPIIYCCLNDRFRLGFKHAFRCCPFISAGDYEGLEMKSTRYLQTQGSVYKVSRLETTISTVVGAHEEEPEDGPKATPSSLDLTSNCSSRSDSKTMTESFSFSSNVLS

Molecule	hNK1R, IP3 Efficacy (hNK1R) [%]	EC50 (hNK2R) [µM]	hNK2R, IP3 Efficacy (hNK2R) [%]	hNK3, IP3 Efficacy (hNK3R; COS-7 cells) [%]	hNK1R receptor activation, in words (hNK1R)	hNK2R receptor activation, in words (hNK2R)	hNK3R receptor activation, in words (hNK3R)	EC50 (hNK1R) [µM]	EC50 (hNK3R; COS-7 cells, 0.2% ovalbumin buffer, read-out: hNK3, IP3 EC50) [µM]
CCCC[C@H](NC(=O)[C@H](CC(C)C)N(C)C(=O)CNC(=O)[C@H](CO)NC(=O)[C@H](Cc1ccc(O)cc1)NC(=O)[C@H](CCCCN)NC(=O)[C@H](CC(=O)O)NC(=O)COCCOCCNC(=O)COCCOCCNC(=O)CC[C@H](NC(=O)CCCCCCCCCCCCCCCCC(=O)O)C(=O)O)C(N)=O [compound 386, *Asp;Lys;Tyr;Ser;Gly;NmLeu;Nle;NH2] ({C18 diacid-γGlu-AEEA-AEEA}-DKYSG[NMeL][Nle]-NH2)	0	0.029	63	0	–	–	–	–	–
*Asp;Lys;Val;Tyr;Gly;NmLeu;Nle;NH2 ({Conj‑Neu‑C18DA}-DKVYG[NMeL][Nle]-NH2; reading uncertain; also: printed as *Asp;Lys;Val;Tyr;Gly;NmLeu;Nle;NH2) [compound 363, * is Conj-Neu-C18DA protractor on N-terminal α-amino group]	0	–	0	0	complete loss of receptor activation on NK1-3Rs	complete loss of receptor activation on NK1-3Rs	complete loss of receptor activation on NK1-3Rs	–	–
CCCC[C@H](NC(=O)[C@H](CC(C)C)N(C)C(=O)CNC(=O)[C@H](CCCNC(=N)N)NC(=O)[C@H](Cc1ccc(O)cc1)NC(=O)[C@H](CCCCN)NC(=O)[C@H](CCC(=O)O)NC(=O)COCCOCCNC(=O)COCCOCCNC(=O)CC[C@H](NC(=O)CCCCCCCCCCCCCCCCC(=O)O)C(=O)O)C(N)=O [compound 314, *Glu;Lys;Tyr;Arg;Gly;NmLeu;Nle;NH2] ({C18 diacid-γGlu-AEEA-AEEA}-EKYRG[NMeL][Nle]-NH2)	0	~3.1	45	0	–	–	–	–	–
CCCC[C@H](NC(=O)[C@H](CC(C)C)N(C)C(=O)CNC(=O)[C@@H](NC(=O)[C@H](Cc1ccccc1)NC(=O)[C@H](CCCCN)NC(=O)[C@H](CC(=O)O)NC(=O)COCCOCCNC(=O)COCCOCCNC(=O)CC[C@H](NC(=O)CCCCCCCCCCCCCCCCC(=O)O)C(=O)O)[C@@H](C)O)C(N)=O [compound 387, *Asp;Lys;Phe;Thr;Gly;NmLeu;Nle;NH2] ({C18 diacid-γGlu-AEEA-AEEA}-DKFTG[NMeL][Nle]-NH2)	100	0.0033	100	100	–	–	–	0.0055	0.034
CCCC[C@H](NC(=O)[C@H](CC(C)C)N(C)C(=O)CNC(=O)[C@@H](NC(=O)[C@H](Cc1ccc(O)cc1)NC(=O)[C@H](CCCCN)NC(=O)[C@H](CC(=O)O)NC(=O)COCCOCCNC(=O)COCCOCCNC(=O)CC[C@H](NC(=O)CCCCCCCCCCCCCCC(=O)O)C(=O)O)C(C)C)C(N)=O [compound 367, *Asp;Lys;Tyr;Val;Gly;NmLeu;Nle;NH2] ({C16 diacid-γGlu-AEEA-AEEA}-DKYVG[NMeL][Nle]-NH2)	20	0.0056	75	0	–	–	–	~31	–
CSCC[C@H](NC(=O)[C@H](CC(C)C)N(C)C(=O)CNC(=O)[C@@H](NC(=O)[C@H](Cc1ccccc1)NC(=O)[C@H](CCCCNC(=O)COCCOCCNC(=O)COCCOCCNC(=O)CC[C@H](NC(=O)CCCCCCCCCCCCCCCCC(=O)O)C(=O)O)NC(=O)[C@H](CC(=O)O)NC(=O)COCCOCCNC(=O)COCCOCCNC(=O)CC[C@H](NC(=O)CCCCCCCCCCCCCCCCC(=O)O)C(=O)O)C(C)C)C(N)=O [compound 302, *Asp;Lys*;Phe;Val;Gly;NmLeu;Met;NH2]	–	–	–	–	–	inactivates the NKA(4-10) analogue	–	–	–
